Here are results for one compound from patent publication US20230276832A1, “ULTRASONIC PREPARATION METHOD OF PROTEIN-DERIVED PEPTIDE-POLYSACCHARIDE NANOPARTICLES LOADED WITH BIOACTIVE COMPONENTS” (JIANGSU UNIVERSITY, priority 2021, published 2023).

The nature of data set [1]: Solubility of quercetin in water. The class given is physicochemical. The procedure: Determination method: The quercetin concentration in the quercetin-loaded composite nanoparticle dispersion liquid was determined in the same manner as described in the examples, and calculation was done using the standard curve and dilution ratio. And the solubility of quercetin in water was calculated according to the following formula:
Solubility (μg/mL)=detected quercetin concentration×dilution factor

Data set [2] can be described thus: Release of quercetin during in vitro gastrointestinal digestion simulation. Particulars: for release rate of quercetin: simulated gastric digestion. The class given is in vitro ADME. The procedure: Experimental method: The pH of 40 mL of freshly prepared free quercetin and quercetin composite nanoparticles dispersion was adjusted to 2.0 with 1 M HCl. After 10 min of preheating in a shaker (37° C., 100 rpm/min), 26.7 mg of pepsin was added and thoroughly mixed for 1 h to initiate simulated gastric digestion. After 1 h of digestion at 37° C., the pH of the pepsin digest was adjusted to 7.4 using 5 M NaOH. 200 mg of bile salts were added and mixed well in a shaker for 10 min. Then 13.6 mg of trypsin was added to start simulated intestinal digestion for 2 h. During the simulated gastrointestinal digestion process, 3 mL of digestion samples were collected at different digestion time (0, 30, 60, 90, 120, 150 and 180 min), and the enzyme was immediately inactivated with liquid nitrogen to terminate the reaction. The content of quercetin was determined, and the release rate (%) of quercetin was calculated according to the following formula: […]

Data set [3] can be described thus: DPPH free radical scavenging method. The class given is biochemical. Particulars: 100 μM DPPH, 30 min in dark. The procedure:
A 100 μM solution of DPPH (as-is) was prepared in dark using absolute ethanol. A volume of 2 mL DPPH solution was taken out and mixed well with 2 mL of sample solution, and allowed to react in dark at room temperature for 30 min. The absorbance at 517 nm of the mixture was measured using a UV-visible spectrophotometer. Distilled water and absolute ethanol were served as blank controls instead of samples. The formula for calculating the DPPH free radical scavenging rate of the sample was as follows:
Wherein, A0 represents blank; A1 is the sample with ethanol; A2 is the sample with DPPH solution.

Data set [4] is described as follows: Effect of light (UV 253.7 nm) on stability of quercetin (retention rate). Particulars: after 210 min of ultraviolet light irradiation. The class given is physicochemical. The procedure:
Experimental method: The freshly prepared free quercetin and quercetin-loaded composite nanoparticle dispersions were taken into transparent glass bottles in equal volume. It was then placed in a light cabinet of 0.24 m^3 and exposed to light with a wavelength of 253.7 nm, which was generated by a UV lamp with a power of 20 W. After exposure to light for 0, 30, 60, 90, 150, and 210 min, the stability of quercetin in different samples was studied, the residual quercetin content in the samples was determined, and the retention rate of quercetin (%) was calculated according to the following formula: […]

A short description of data set [5]: Effect of temperature on stability of quercetin (retention rate). The class given is physicochemical. Particulars: water bath 60, 75 and 90° C. for 30 min. The procedure:
Experimental method: The newly prepared free quercetin and quercetin-loaded composite nanoparticle dispersions were placed into glass-sealed bottles and heated in a water bath at 60, 75 and 90° C. for 30 min, respectively. It was then immediately cooled to room temperature at 25° C., and the amount of quercetin remaining in the sample was determined. The retention rate (%) of quercetin was calculated according to the following formula: […]

Structures are written as SMILES.

For `O=c1c(O)c(-c2ccc(O)c(O)c2)oc2cc(O)cc(O)c12` [quercetin], the “solubility of quercetin in water” value in data set [1] was determined as 7.05 µg/mL. In data set [2] (after subsequent simulated intestinal digestion), the “quercetin released in the digestive juice” value is listed as 90.09%. The “release rate of quercetin” value in data set [2] (60 min) was 64.06%; in data set [2] (first 30 min), 42.36%. For the same compound, the “DPPH free radical scavenging rate” value in data set [3] was 94.52%. For the same compound, in data set [4], the “retention rate of quercetin” value is on record as 60.08%. Also, the “thermal stability of quercetin” value in data set [5] is recorded as “poor thermal stability”.
